Test results: PubChem BioAssay (NCI)
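Here, GI50 denotes the concentration required for 50% inhibition of growth. TGI denotes the concentration required for complete inhibition of growth.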

How the values were obtained:
Assay in all cases: NCI anticancer screen, dose series, 384-well format
KM12 colon = test system: KM12 colon
NCI-H322M lung = test system: NCI-H322M lung
786-0 renal = test system: 786-0 renal
NCI/ADR-RES ovarian = test system: NCI/ADR-RES ovarian
MDA-MB-435 melanoma = test system: MDA-MB-435 melanoma
M14 melanoma = test system: M14 melanoma
HCC-2998 colon = test system: HCC-2998 colon
RXF 393 renal = test system: RXF 393 renal
UACC-257 melanoma = test system: UACC-257 melanoma
DU-145 prostate = test system: DU-145 prostate
HT29 colon = test system: HT29 colon
NCI-H522 lung = test system: NCI-H522 lung
NCI-H226 lung = test system: NCI-H226 lung
TK-10 renal = test system: TK-10 renal
T-47D breast = test system: T-47D breast
HL-60(TB) leukemia = test system: HL-60(TB) leukemia
MOLT-4 leukemia = test system: MOLT-4 leukemia
MDA-MB-468 breast = test system: MDA-MB-468 breast
A549 NSCLC = test system: A549 NSCLC
OVCAR-5 ovarian = test system: OVCAR-5 ovarian
MDA-MB-231 breast = test system: MDA-MB-231 breast
HOP-62 NSCLC = test system: HOP-62 NSCLC
NCI-H23 lung = test system: NCI-H23 lung
K-562 leukemia = test system: K-562 leukemia
PC-3 prostate = test system: PC-3 prostate
HOP-92 NSCLC = test system: HOP-92 NSCLC
OVCAR-8 ovarian = test system: OVCAR-8 ovarian
SK-OV-3 ovarian = test system: SK-OV-3 ovarian

Question: `CCN1C(C)(C)CC(Oc2ccc(C(=O)Nc3ccc(NC(=O)Nc4cc(C(C)(C)C)on4)cc3)nc2)CC1(C)C` was tested. Which GI50 (KM12 colon) did it give?
Answer: 1.74 µM

Question: What about the TGI (KM12 colon) of the same compound?
Answer: 3.14 µM

Question: And the GI50 (NCI-H322M lung)?
Answer: 2.02 µM

Question: What about the TGI (NCI-H322M lung) of the same compound?
Answer: 4.14 µM

Question: And the GI50 ([…]-0 renal)?
Answer: 1.52 µM

Question: And the TGI (786-0 renal)?
Answer: 2.87 µM

Question: What about the GI50 (NCI/ADR-RES ovarian) of the same compound?
Answer: 1.82 µM

Question: What about the TGI (NCI/ADR-RES ovarian) of the same compound?
Answer: 3.72 µM

Question: What about the GI50 (MDA-MB-435 melanoma) of the same compound?
Answer: 2 µM

Question: What about the TGI (MDA-MB-435 melanoma) of the same compound?
Answer: 3.44 µM

Question: And the GI50 (M14 melanoma)?
Answer: 1.71 µM

Question: And the TGI (M14 melanoma)?
Answer: 3.09 µM

Question: And the GI50 (HCC-2998 colon)?
Answer: 1.6 µM

Question: And the TGI (HCC-2998 colon)?
Answer: 2.98 µM

Question: What about the GI50 (RXF 393 renal) of the same compound?
Answer: 0.384 µM

Question: And the TGI (RXF 393 renal)?
Answer: 1.47 µM

Question: What about the GI50 (UACC-257 melanoma) of the same compound?
Answer: 1.33 µM

Question: What about the TGI (UACC-257 melanoma) of the same compound?
Answer: 2.61 µM

Question: And the GI50 (DU-145 prostate)?
Answer: 1.88 µM

Question: And the TGI (DU-145 prostate)?
Answer: 3.49 µM

Question: What about the GI50 (HT29 colon) of the same compound?
Answer: 0.832 µM

Question: What about the TGI (HT29 colon) of the same compound?
Answer: 2.09 µM

Question: What about the GI50 (NCI-H522 lung) of the same compound?
Answer: 1.77 µM

Question: What about the TGI (NCI-H522 lung) of the same compound?
Answer: 3.16 µM

Question: And the GI50 (NCI-H226 lung)?
Answer: 1.68 µM

Question: What about the TGI (NCI-H226 lung) of the same compound?
Answer: 3.08 µM

Question: What about the GI50 (TK-10 renal) of the same compound?
Answer: 1.92 µM

Question: And the TGI (TK-10 renal)?
Answer: 3.87 µM

Question: What about the GI50 (T-47D breast) of the same compound?
Answer: 1.43 µM

Question: What about the TGI (T-47D breast) of the same compound?
Answer: 2.79 µM

Question: What about the GI50 (HL-60(TB) leukemia) of the same compound?
Answer: 2.51 µM

Question: What about the TGI (HL-60(TB) leukemia) of the same compound?
Answer: 5.71 µM

Question: And the GI50 (MOLT-4 leukemia)?
Answer: 1.67 µM

Question: What about the TGI (MOLT-4 leukemia) of the same compound?
Answer: 3.06 µM

Question: What about the GI50 (MDA-MB-468 breast) of the same compound?
Answer: 2.03 µM

Question: And the TGI (MDA-MB-468 breast)?
Answer: 3.56 µM

Question: And the GI50 (A549 NSCLC)?
Answer: 1.83 µM

Question: And the TGI (A549 NSCLC)?
Answer: 3.32 µM

Question: And the GI50 (OVCAR-5 ovarian)?
Answer: 2.08 µM

Question: And the TGI (OVCAR-5 ovarian)?
Answer: 3.84 µM

Question: And the GI50 (MDA-MB-231 breast)?
Answer: 1.77 µM

Question: What about the TGI (MDA-MB-231 breast) of the same compound?
Answer: 3.23 µM

Question: What about the GI50 (HOP-62 NSCLC) of the same compound?
Answer: 1.88 µM

Question: And the TGI (HOP-62 NSCLC)?
Answer: 3.34 µM

Question: What about the GI50 (NCI-H23 lung) of the same compound?
Answer: 3.33 µM

Question: What about the TGI (NCI-H23 lung) of the same compound?
Answer: 8.85 µM

Question: And the GI50 (K-562 leukemia)?
Answer: 1.6 µM

Question: And the TGI (K-562 leukemia)?
Answer: 2.97 µM

Question: What about the GI50 (PC-3 prostate) of the same compound?
Answer: 1.95 µM

Question: What about the TGI (PC-3 prostate) of the same compound?
Answer: 3.5 µM

Question: And the GI50 (HOP-92 NSCLC)?
Answer: 1.65 µM

Question: What about the TGI (HOP-92 NSCLC) of the same compound?
Answer: 3.16 µM

Question: What about the GI50 (OVCAR-8 ovarian) of the same compound?
Answer: 1.77 µM

Question: What about the TGI (OVCAR-8 ovarian) of the same compound?
Answer: 3.19 µM

Question: What about the GI50 (SK-OV-3 ovarian) of the same compound?
Answer: 1.71 µM

Question: What about the TGI (SK-OV-3 ovarian) of the same compound?
Answer: 3.1 µM
